Data on 5 compounds can be found in PMC8950151, “Synthesis and Evaluation of the Antifungal and Toxicological Activity of Nitrofuran Derivatives” (Pharmaceutics, 2022).

Data set [1] deals with C. krusei (ATCC 6258). The data set is described as follows: Minimum fungicidal concentration (MFC). Type of data set: cell-based, Candida krusei. Conditions: Pichia kudriavzevii, ATCC6258.
In data set [2] the test system is Trichophyton mentagrophytes (ATCC 11481). The data set is described as follows: Minimum fungicidal concentration (MFC). Type of data set: cell-based. Conditions: T. mentagrophytes; for MFC: Trichophyton mentagrophytes, ATCC11481.
Data set [3] has as its system Paracoccidioides brasiliensis (Pb 18). Description: microbe, parasite or virus in culture. Conditions: Paracoccidioides brasiliensis. Type of data set: cell-based.
For data set [4], the system named is A549 (ATCC CCL-185) lung epithelial cell line. The data set is described as follows: Cytotoxicity assay in monolayer by resazurin colorimetric method. Type of data set: cell-based. To be noted: Homo sapiens, A549 cells, 72 h. For orientation: Alamar Blue is a resazurin reagent that responds to reducing activity.
Data set [5] has as its system Histoplasma capsulatum (G217-B/ATCC 26032). Description: microbe, parasite or virus in culture. The format is cell-based. Conditions: ATCC26032.
Data set [6] relates to Trichophyton mentagrophytes (ATCC 11481). Description: Susceptibility assay for dermatophytes (CLSI M38-A2, resazurin), MIC90. Conditions: Trichophyton mentagrophytes, ATCC11481, 96 h, T. mentagrophytes, 35 °C, read-out: MIC90. Type of data set: cell-based.
Data set [7] deals with Candida albicans (ATCC 90028). The data set is described as follows: Minimum fungicidal concentration (MFC). The format is cell-based. Conditions: ATCC90028, C. albicans.
In data set [8] the test system is T. rubrum (ATCC 28289). The data set is described as follows: Minimum fungicidal concentration (MFC). Type of data set: cell-based, Trichophyton rubrum. To be noted: Trichophyton rubrum, ATCC28289.
Data set [9] concerns C. glabrata (ATCC 90030). Description: Minimum fungicidal concentration (MFC). Type of data set: cell-based, Candida glabrata. To be noted: Nakaseomyces glabratus, ATCC90030; C. glabrata; read-out: MFC.
Data set [10] concerns C. krusei (ATCC 6258). Description: Susceptibility test (CLSI M27-A3 broth microdilution, resazurin readout), MIC90. The format is cell-based, Candida krusei. To be noted: Pichia kudriavzevii, ATCC6258, 24 h. For orientation: In broth dilution the organism is exposed to a series of concentrations in liquid medium.
Data set [11] deals with Cryptococcus neoformans (H99/ATCC 208821). Description: Minimum fungicidal concentration (MFC). The format is cell-based. Conditions: ATCC208821, C. neoformans.
Data set [12] relates to T. rubrum (ATCC 28289). Description: Susceptibility assay for dermatophytes (CLSI M38-A2, resazurin), MIC90. Type of data set: cell-based. To be noted: Trichophyton rubrum, ATCC28289, 96 h, 35 °C.
A further data set can be described thus: in vitro. Conditions: human.
Data set [13] concerns Histoplasma capsulatum (G217-B/ATCC 26032). Description: microbe, parasite or virus in culture. The format is cell-based. Conditions: ATCC26032, 144 h.
Data set [14] concerns Candida albicans (ATCC 90028). Description: Susceptibility test (CLSI M27-A3 broth microdilution, resazurin readout), MIC90. To be noted: ATCC90028, C. albicans, 24 h, 37 °C. The format is cell-based.
Data set [15] concerns Cryptococcus neoformans (H99/ATCC 208821). Described as above. Type of data set: cell-based. To be noted: ATCC208821, 48 h.
Data set [16] has as its system C. glabrata (ATCC 90030). The data set is described as above. Type of data set: cell-based, Candida glabrata. Conditions: Nakaseomyces glabratus, ATCC90030, 24 h, 37 °C.

Converted amounts (≈) assume the structure as drawn.

Usually IC50 stands for the point on the concentration scale where inhibition reaches its midpoint. A lower IC50 goes with greater potency in that assay. On to `O=C(NCc1ccccn1)c1ccc([N+](=O)[O-])o1` [Compound 4], for which the MFC against C. krusei (ATCC 6258) [1] is 250 µg/mL (≈ 1010 µM); in [2], 250 µg/mL (≈ 1010 µM); in data set [3] it was 7.81 µg/mL (≈ 31.6 µM); in data set [5], 3.9 µg/mL (≈ 15.8 µM); in data set [7] it was more than 250 µg/mL; in the data set on T. rubrum (ATCC 28289) [8], 125 µg/mL (≈ 506 µM). The MFC is more than 250 µg/mL with C. glabrata (ATCC 90030) [9] and 62.5 µg/mL (≈ 253 µM) in [11]. Further, in data set [2] (MFC versus MIC90), the “fungistatic / fungicidal profile” value is given as “fungistatic profile”. Also, the IC50 was determined as 29.5 µg/mL (≈ 119 µM) in data set [4] and 135 µg/mL (≈ 547 µM) in the data set “in vitro”. In addition, the MIC90 amounted to 31.2 µg/mL (≈ 126 µM) in data set [6]; 250 µg/mL (≈ 1010 µM) with C. krusei (ATCC 6258) [10]; 125 µg/mL (≈ 506 µM) with T. rubrum (ATCC 28289) [12]; 3.9 µg/mL (≈ 15.8 µM) in [13]; 250 µg/mL (≈ 1010 µM) in [14]; 31.2 µg/mL (≈ 126 µM) in data set [15]. In the data set on C. glabrata (ATCC 90030) [16], this compound displayed an MIC90 of more than 250 µg/mL.

Take `O=C(/C=C/c1ccc([N+](=O)[O-])o1)c1ccccc1` [Compound 8]: the MFC against C. krusei (ATCC 6258) [1] was more than 250 µg/mL; in data set [2], 1.95 µg/mL (≈ 8.02 µM); in data set [3], 1.95 µg/mL (≈ 8.02 µM); in data set [5], 15.6 µg/mL (≈ 64.2 µM); in data set [7] it was more than 250 µg/mL; in the data set on T. rubrum (ATCC 28289) [8] it was 1.95 µg/mL (≈ 8.02 µM). Further, the MFC is more than 250 µg/mL with C. glabrata (ATCC 90030) [9] and 31.2 µg/mL (≈ 128 µM) in [11]. Also, the IC50 in [4] is 53.8 µg/mL (≈ 221 µM); in “in vitro”, 6.66 µg/mL (≈ 27.4 µM). Besides, the MIC90 in data set [6] came to 0.98 µg/mL (≈ 4.03 µM); against C. krusei (ATCC 6258) [10] it was 250 µg/mL (≈ 1030 µM); in the data set on T. rubrum (ATCC 28289) [12] it was 0.98 µg/mL (≈ 4.03 µM); in [13] it was 15.6 µg/mL (≈ 64.2 µM); in data set [14] it was 7.8 µg/mL (≈ 32.1 µM); in data set [15] it was 31.2 µg/mL (≈ 128 µM). The MIC90 with C. glabrata (ATCC 90030) [16] was found to be 7.81 µg/mL (≈ 32.1 µM).

For the compound `O=C(NCCc1c[nH]c2ccccc12)c1ccc([N+](=O)[O-])o1` [Compound 7], the MFC in the data set on C. krusei (ATCC 6258) [1] is more than 250 µg/mL; in [2], more than 250 µg/mL; in data set [3], 1.95 µg/mL (≈ 6.52 µM); in data set [5], 0.98 µg/mL (≈ 3.27 µM); in [7] it was more than 250 µg/mL; in the data set with T. rubrum (ATCC 28289) [8] it was more than 250 µg/mL. Also, the MFC in the data set on C. glabrata (ATCC 90030) [9] was more than 250 µg/mL; in [11], 62.5 µg/mL (≈ 209 µM). Moreover, the IC50 turned out to be 8.58 µg/mL (≈ 28.7 µM) in data set [4] and 71.2 µg/mL (≈ 238 µM) in the data set “in vitro”. The MIC90 came to 125 µg/mL (≈ 418 µM) in data set [6]; 250 µg/mL (≈ 835 µM) against C. krusei (ATCC 6258) [10]; 125 µg/mL (≈ 418 µM) with T. rubrum (ATCC 28289) [12]; 0.98 µg/mL (≈ 3.27 µM) in data set [13]; 250 µg/mL (≈ 835 µM) in data set [14]; 62.5 µg/mL (≈ 209 µM) in data set [15]. In addition, the MIC90 with C. glabrata (ATCC 90030) [16] was more than 250 µg/mL.

`CSc1ccc(C(=O)/C=C/c2ccc([N+](=O)[O-])o2)cc1` [Compound 13]: the MFC in the data set with C. krusei (ATCC 6258) [1] is more than 250 µg/mL; in data set [2], 0.98 µg/mL (≈ 3.39 µM); in [3], 0.98 µg/mL (≈ 3.39 µM); in data set [5] it was 125 µg/mL (≈ 432 µM); in data set [7], more than 250 µg/mL; in the data set with T. rubrum (ATCC 28289) [8], 1.95 µg/mL (≈ 6.74 µM). Besides, the MFC is more than 250 µg/mL with C. glabrata (ATCC 90030) [9] and not below 250 µg/mL in data set [11]. Further, the values for the IC50 (in [4]; in “in vitro”) were 17.9 µg/mL (≈ 61.9 µM) and 4.15 µg/mL (≈ 14.3 µM), respectively. The MIC90 in [6] is 0.98 µg/mL (≈ 3.39 µM); against C. krusei (ATCC 6258) [10] it was more than 250 µg/mL; against T. rubrum (ATCC 28289) [12], 0.98 µg/mL (≈ 3.39 µM); in data set [13] it was 125 µg/mL (≈ 432 µM); in data set [14], more than 250 µg/mL; in [15], not below 250 µg/mL. The MIC90 in the data set with C. glabrata (ATCC 90030) [16] was more than 250 µg/mL.

`O=C(/C=C/c1ccc([N+](=O)[O-])o1)c1ccc(F)cc1` [Compound 9]: the MFC against C. krusei (ATCC 6258) [1] is more than 250 µg/mL; in data set [2], 1.95 µg/mL (≈ 7.47 µM); in [3], 1.95 µg/mL (≈ 7.47 µM); in data set [5], 3.9 µg/mL (≈ 14.9 µM); in [7], 31.2 µg/mL (≈ 120 µM); in the data set with T. rubrum (ATCC 28289) [8], 1.95 µg/mL (≈ 7.47 µM). The MFC was more than 250 µg/mL in the data set with C. glabrata (ATCC 90030) [9] and 15.6 µg/mL (≈ 59.8 µM) in data set [11]. Moreover, the results for the IC50 (in [4]; in the data set “in vitro”) were 23.4 µg/mL (≈ 89.6 µM) and 47.2 µg/mL (≈ 181 µM), respectively. The MIC90 in data set [6] came to 1.95 µg/mL (≈ 7.47 µM); in the data set on C. krusei (ATCC 6258) [10], 250 µg/mL (≈ 957 µM); against T. rubrum (ATCC 28289) [12] it was 0.98 µg/mL (≈ 3.75 µM); in data set [13], 3.9 µg/mL (≈ 14.9 µM); in data set [14], 15.6 µg/mL (≈ 59.8 µM); in [15], 7.81 µg/mL (≈ 29.9 µM). Besides, in the data set on C. glabrata (ATCC 90030) [16], the MIC90 was determined as 31.2 µg/mL (≈ 120 µM).
